These results are taken from patent publication US20250066794A1, “Application of PRDX5 and GPX4 Genes in Preparation of Drugs for Castration-resistant Prostate Cancer” (Jiangnan University, priority 2023, published 2025).

The test system of one series is LNCaP-DTP cells. The experiment in a line: CCK8 cell survival, LNCaP-DTP cells. It is filed as cell-based, human. As to the method:
(§1) Further, drug-resistant LNCaP-DTP and MyC-CaP-DTP cells as well as 22Rv1 cells which are themselves ENZ-resistant were transfected with the modified #3-siPRDX5-1-16 or #3-siGPX4-1-16 or #3-siPRDX5-1-16+#3-siGPX4-1-16 synthesized in Example 3 through a CCK8 method, illustrating the in vitro antitumor effects of nucleic acid drugs in drug-resistant cells.
(§2) The drug-resistant LNCaP-DTP and MyC-CaP-DTP cells as well as 22Rv1 cells which are themselves ENZ-resistant were seeded in a 96-well plate containing fresh 1640 medium and attached. Subsequently, 1 to 16 siPRDX5, siGPX4, siPRDX5+siGPX4, and negative control si-neg were added, and the transfection mixture was sucked out after successful interference. The medium was replaced with a normal complete medium (1640 medium containing 10% fetal bovine serum and 1% double antibody) and continued to be cultured in the incubator for 24 h. Finally, a CCK8 assay was performed for determination and the cell survival was calculated by OD450 value.

The subject of series [1] is C-MYC (Hi-Myc)-overexpressing and spontaneous prostate cancer mouse model. The series can be described thus: C-MYC (Hi-Myc)-overexpressing spontaneous prostate cancer mouse model, ENZ gavage before resistance. It is filed as in vivo. As to the method: (§3) A C-MYC (Hi-Myc)-overexpressing and spontaneous prostate cancer mouse model was constructed. mPIN/Cancer transition was developed in mice at the age of 4 months, at which time the mice were randomly grouped into NC control group (gavaged with solvent) and ENZ administration group. The ENZ administration group was given 10 mg/Kg ENZ by gavage every three days for a total of 30 days, and then some of the mice were sacrificed by cervical dislocation and their prostates were taken for photographing and weighing. […] Afterwards, the rest of the mice continued to be administrated according to the above method for 60 days. A recurrence was found in the ENZ group, and the CRPC mice were successfully obtained. Afterwards, the mice (i.e., mice at the age of 7 months) were randomly grouped into NC control group (continuously gavaged with solvent), ENZ single drug group, nucleic acid drug siPRDX5-1 group, ENZ and siPRDX5-1 co-administration group, nucleic acid drug siPRDX5-16 group, ENZ and siPRDX5-16 co-administration group, nucleic acid drug siGPX4-1 group, ENZ and siGPX4-1 co-administration group, nucleic acid drug siGPX4-16 group, ENZ and siGPX4-16 co-administration group, nucleic acid drugs siPRDX5-16+siGPX4-16 group, and ENZ and siPRDX5-16+siGPX4-16 co-administration group. The corresponding administrations were performed. […]

The next series deals with CRPC mice. The experiment in a line: Drug-resistant CRPC formed by continuous ENZ in C-MYC-overexpressing prostate cancer mice: prostate weight, HE staining. The series is classed as in vivo, mouse. The settings on record: CRPC mice after drug resistance and recurrence; every three days for 30 days; ENZ 10 mg/Kg gavage, siRNA 100 nM tail vein injection. The procedure: as §3

In another series the test system is PRDX5 enzyme activity. The series can be described thus: PRDX5 enzyme activity in prostate tissue of CRPC mice (thioredoxin system). It is filed as in vivo, mouse. The settings on record: administration for 30 days, ENZ 10 mg/Kg gavage, siRNA 100 nM tail vein injection. As to the method:
A C-MYC (Hi-Myc)-overexpressing and spontaneous prostate cancer mouse model was constructed. mPIN/Cancer transition was developed in mice at the age of 4 months, at which time the mice were randomly grouped into NC control group (gavaged with solvent) and ENZ administration group. The ENZ administration group was given 10 mg/Kg ENZ by gavage every three days for a total of 30 days, and then some of the mice were sacrificed by cervical dislocation and their prostates were taken for photographing and weighing. […] Afterwards, the rest of the mice continued to be administrated according to the above method for 60 days. A recurrence was found in the ENZ group, and the CRPC mice were successfully obtained. […]
Assay for PRDX5 enzyme activity: the PRDX5 enzyme activity was determined using the thioredoxin system. Specifically, the rate of H2O2 degradation was measured by detecting the reduction of A340 caused by NADPH oxidation. […]

The next series has as its system MyC-CaP-DTP cells. The experiment in a line: CCK8 cell survival, MyC-CaP-DTP cells. It is filed as cell-based, mouse. The procedure:
as §1, §2

The subject of another series is GPX4 gene. The experiment in a line: qRT-PCR relative expression of GPX4 gene after siGPX4 transfection, LNCaP and LNCaP-DTP cells. The series is classed as cell-based, human. The note with it: for mRNA expression level of GPX4: LNCaP and drug-resistant LNCaP-DTP cells together; for Relative expression level of GPX4 gene: qRT-PCR; for interference activity on GPX4 gene expression (in words): drug-resistant or non-drug-resistant LNCaP cells and MyC-CaP cells. As to the method:
(§4) To screen for suitable siRNAs, the interference activity of the siRNAs designed in Example 1 was determined. • S1. LNCaP and MyC-CaP cells were seeded at 1×10^6 in a 10 cm cell culture dish. On the second day, the cells were attached and then treated with 50 μM enzalutamide (ENZ) for 9 days, during which the medium was replaced with a fresh drug-containing medium (1640 medium containing 50 µM ENZ) for culture every three days. The cells were collected. After the treatment for 9 days, the cells were drug-resistant (DTP cells) and were labeled as LNCaP-DTP cells and MyC-CaP-DTP cells, respectively. • S2. LNCaP, MyC-CaP, and LNCaP-DTP and MyC-CaP-DTP cells as collected in S1, were seeded in a 6 cm dish and a 10 cm dish that contain fresh complete medium (1640 medium containing 10% fetal bovine serum and 1% […]), attached, and then transfected with siPRDX5 and siGPX4 designed in Example 1, and then mRNA and protein were extracted. • S3. RNA level and protein level were determined by qRT-PCR and Western Blot assays, and siRNAs with interference activity were screened and obtained.
(§5) The results are shown in FIG. 2 and FIG. 3 as well as Tables 1 and 2. Using the same method as in Example 2, LNCaP and MyC-CaP cells as well as their derived LNCaP-DTP and MyC-CaP-DTP cells were treated with the above modified siRNAs. […] It is also found to be more efficient in interfering with human cells compared to mice.
On the technique in general: Quantitative PCR measures a nucleic acid by following its amplification.

A further series concerns PRDX5 gene. The series can be described thus: qRT-PCR relative expression of PRDX5 gene after siPRDX5 transfection, LNCaP and LNCaP-DTP cells. It is filed as cell-based, human. The note with it: for mRNA expression level of PRDX5: LNCaP and drug-resistant LNCaP-DTP cells together; for Relative expression level of PRDX5 gene: qRT-PCR. As to the method:
as §4, §5

Another series concerns GPX4. The series can be described thus: Western Blot / qRT-PCR expression of GPX4 after unmodified siGPX4. It is filed as cell-based. The note with it: unmodified siRNA; LNCaP and MyC-CaP cells (FIG. 1, FIG. 4). The procedure: as §4
(In general: In western blotting, separated proteins are transferred to a membrane and probed.)

The next series deals with PRDX5. The series can be described thus: Western Blot / qRT-PCR expression of PRDX5 after unmodified siPRDX5. The series is classed as cell-based. The settings on record: unmodified siRNA; LNCaP and MyC-CaP cells (FIG. 1, FIG. 4). As to the method:
as §4

Turning to `CNC(=O)c1ccc(N2C(=S)N(c3ccc(C#N)c(C(F)(F)F)c3)C(=O)C2(C)C)cc1F` [ENZ, Enzalutamide], the “growth inhibition (in words)” value with LNCaP-DTP cells and in the series on MyC-CaP-DTP cells was “no longer has a significant inhibitory effect” each time. Further, the “recurrence on continued administration” value in series [1] (administration continued for 60 further days) is on record as “recurrence”. Also, the “prostate weight compared to that of the NC control group” value in [1] (mice aged 4 months, 10 mg/Kg ENZ by gavage every three days for 30 days) was “reduced by half”. Besides, the “Mean mouse prostate weight” value in the series on CRPC mice is 66.67 mg. Moreover, in the series on PRDX5 enzyme activity, the “PRDX5 enzyme activity relative to NC group” value is 4.56.

On to “#1-siGPX4: unmodified double-stranded siRNA against GPX4, SEQ ID NO. 11 and SEQ ID NO. 12 (chain 1 GUGAGGCAAGACCGAAGUAAACUAC; chain 2 GUAGUUUACUUCGGUCUUGCCUCACUG; unmodified RNA)”, for which, in the series on GPX4 gene, the “mRNA expression level of GPX4” value is reported as “around 0.73”. Moreover, the “Relative expression level of GPX4 gene” value came to 0.700 in the series on GPX4 gene (LNCaP cells) and 0.735 in the series on GPX4 gene (LNCaP-DTP cells).

Regarding “#1-siPRDX5: unmodified double-stranded siRNA against PRDX5, SEQ ID NO. 7 and SEQ ID NO. 8 (chain 1 AGACAGACUUAUUACUAGAUGAUUC; chain 2 GAAUCAUCUAGUAAUAAGUCUGUCUCC; chain 1: all phosphodiester, sugars by position and methylation of C not given here; chain 2: unmodified RNA)”, the “mRNA expression level of PRDX5” value with PRDX5 gene is listed as “around 0.60”. The entries for the “Relative expression level of PRDX5 gene” value in the series on PRDX5 gene (LNCaP cells) and in the series with PRDX5 gene (LNCaP-DTP cells) were 0.605 and 0.621, respectively.

For the molecule “#2-siGPX4: unmodified double-stranded siRNA against GPX4, SEQ ID NO. 13 and SEQ ID NO. 14 (chain 1 CUACAACGUCAAAUUCGAUAUGUUC; chain 2 GAACAUAUCGAAUUUGACGUUGUAGCC; chain 1: all phosphodiester, sugars by position not given here; chain 2: RNA, phosphodiester; further chemistry not fully specified)”, the “mRNA expression level of GPX4” value in the series on GPX4 gene is listed as “around 0.73”. The “Relative expression level of GPX4 gene” value in the series with GPX4 gene (LNCaP cells) is 0.730; in the series with GPX4 gene (LNCaP-DTP cells) it was 0.755.

In the case of “#2-siPRDX5: unmodified double-stranded siRNA against PRDX5, SEQ ID NO. 9 and SEQ ID NO. 10 (chain 1 GGCCAGAUUUCUGCAAUAAACACUU; chain 2 AAGUGUUUAUUGCAGAAAUCUGGCCAA; chain 1: all phosphodiester, sugars by position and methylation of C not given here; chain 2: unmodified RNA)”, the “mRNA expression level of PRDX5” value in the series on PRDX5 gene is on record as “around 0.60”. The “Relative expression level of PRDX5 gene” value in the series with PRDX5 gene (LNCaP cells) is 0.580; with PRDX5 gene (LNCaP-DTP cells), 0.629.

Consider “#3-siGPX4: unmodified double-stranded siRNA against GPX4, SEQ ID NO. 3 and SEQ ID NO. 4 (chain 1 ACAACGUCAAAUUCGAUAUGU; chain 2 ACAUAUCGAAUUUGACGUUGUAC; unmodified RNA)”, for which, in the series on GPX4, the “expression of GPX4, including mRNA level and protein level” value is given as “substantially reducing the expression of GPX4”. Moreover, the “mRNA expression level of GPX4” value in the series with GPX4 gene is recorded as “around 0.21”. The figures for the “Relative expression level of GPX4 gene” value in the series on GPX4 gene (LNCaP cells) and with GPX4 gene (LNCaP-DTP cells) were 0.180 and 0.245, respectively. Further, the “interference activity on GPX4 gene expression (in words)” value in the series on GPX4 gene is recorded as “superior interference activity than the #4-siGPX4”.

“#3-siPRDX5: unmodified double-stranded siRNA against PRDX5, SEQ ID NO. 1 and SEQ ID NO. 2 (chain 1 CAGACUUAUUACUAGAUGAUU; chain 2 AAUCAUCUAGUAAUAAGUCUGUC; unmodified RNA)”: in the series with PRDX5 gene, the “mRNA expression level of PRDX5” value is reported as “around 0.16”. The “Relative expression level of PRDX5 gene” value is reported as 0.125 in the series with PRDX5 gene (LNCaP cells) and 0.197 with PRDX5 gene (LNCaP-DTP cells). For the same molecule, in the series on PRDX5 gene (drug-resistant or non-drug-resistant LNCaP cells and MyC-CaP cells), the “interference activity on PRDX5 gene expression (in words)” value is “superior”. Besides, the “expression of PRDX5, including mRNA level and protein level” value in the series with PRDX5 was “substantially reducing the expression of PRDX5”.

Turning to “#4-siGPX4: unmodified double-stranded siRNA against GPX4, SEQ ID NO. 5 and SEQ ID NO. 6 (chain 1 GUGAGGCAAGACCGAAGUAAA; chain 2 UUUACUUCGGUCUUGCCUCACUG; unmodified RNA)”, the “expression of GPX4, including mRNA level and protein level” value with GPX4 is given as “substantially reducing the expression of GPX4”. In addition, in the series with GPX4 gene, the “mRNA expression level of GPX4” value is “around 0.24” and the “interference activity on GPX4 gene expression (in words)” value is given as “superior”. In the series on GPX4 gene (LNCaP cells), the “Relative expression level of GPX4 gene” value stood at 0.220. The “Relative expression level of GPX4 gene” value in the series with GPX4 gene (LNCaP-DTP cells) stood at 0.265.
